In the supplement of paper PMC10307832:

What was measured:
Test in all cases: relative viability (nuclei count vs DMSO), 5 days (fraction); higher = more cells survive
[1] = compound: CC1=NN=C(O1)C2=NN=C(C=C2)N3CCC(CC3)OC4=C(C=CC(=C4)F)Cl + O=C(CCCCCCC(=O)Nc1ccccc1)NO [Vorinostat] (partner 1 µM)
Procedure, shortened: (§1)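 Values are medians from duplicate plates. Each reflects relative viability, defined as the nuclei count of treated wells over that of vehicle wells. Lung cancer cell lines in 1536-well plates were pin-tool dosed one day after seeding with one drug alone or with a fixed anchor-drug dose plus five library-drug doses (not always all listed) in √10 steps, then fixed, stained and imaged at 4× after 5 days.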

[2] = compound: CC1=NN=C(O1)C2=NN=C(C=C2)N3CCC(CC3)OC4=C(C=CC(=C4)F)Cl + Nc1ncn([C@H]2C[C@H](O)[C@@H](CO)O2)c(=O)n1 [Decitabine] (partner 2 µM)
Procedure, shortened: as §1

Tosedostat + Palbociclib = compound: CC(C)C[C@@H](C(=O)N[C@H](C(=O)OC1CCCC1)c1ccccc1)[C@H](O)C(=O)NO [Tosedostat] + CC(=O)c1c(C)c2cnc(Nc3ccc(N4CCNCC4)cn3)nc2n(C2CCCC2)c1=O [Palbociclib] (partner 0.5 µM)
Procedure, shortened: as §1

[3] = compound: CC1=NN=C(O1)C2=NN=C(C=C2)N3CCC(CC3)OC4=C(C=CC(=C4)F)Cl + N=C(N)NC(=N)NCCc1ccccc1 [Phenformin] (partner 250 µM)
Procedure, shortened: as §1

Question: What does the source list for UMC-11?
Answer: relative viability ([1]; first compound 0.253 µM): 0.361; relative viability ([1]; first compound 0.8 µM): 0.351; relative viability ([1]; first compound 2.53 µM): 0.431; relative viability ([1]; first compound 8 µM): 0.383; relative viability ([2]; first compound 0.253 µM): 0.517; relative viability ([2]; first compound 0.8 µM): 0.517; relative viability ([2]; first compound 2.53 µM): 0.507; relative viability ([2]; first compound 8 µM): 0.466; relative viability (Tosedostat + Palbociclib; first compound 0.02 µM): 0.339; relative viability (Tosedostat + Palbociclib; first compound 0.06325 µM): 0.341; relative viability (Tosedostat + Palbociclib; first compound 0.2 µM): 0.299; relative viability (Tosedostat + Palbociclib; first compound 0.6325 µM): 0.362; relative viability (Tosedostat + Palbociclib; first compound 2 µM): 0.338; relative viability ([3]; first compound 0.253 µM): 0.288; relative viability ([3]; first compound 0.8 µM): 0.291; relative viability ([3]; first compound 2.53 µM): 0.263; relative viability ([3]; first compound 8 µM): 0.263
